Each molecule was assayed against mushroom tyrosinase (Agaricus bisporus, UniProt C7FF04) (assay: Antityrosinase inhibition assay (L-tyrosine substrate, absorbance at 490 nm)). Conditions: against L-tyrosine substrate.
Assay type: biochemical
Protocol: The skin enzymatic inhibitory assay was executed during the study following the approach used by Curto et al. and Nerya et al.. Extracts and isolates were dissolved in dimethyl sulfoxide (DMSO) to a final concentration of 20 mg/mL. […] After incubation at room temperature for 5 min, 110 μL of the substrate (2 mM L-tyrosine) was added to each well. […] Incubation commenced for 30 min at room temperature by measuring the absorbance at 490 nm with the […]1.11).

Chain of mushroom tyrosinase (G1K3P4 entry or part of it): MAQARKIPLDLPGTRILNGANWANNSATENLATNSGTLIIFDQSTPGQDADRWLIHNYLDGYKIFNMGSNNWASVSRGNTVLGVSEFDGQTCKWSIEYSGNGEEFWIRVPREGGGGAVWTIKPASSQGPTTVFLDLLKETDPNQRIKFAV
Chain of mushroom tyrosinase (C7FF04 1-392): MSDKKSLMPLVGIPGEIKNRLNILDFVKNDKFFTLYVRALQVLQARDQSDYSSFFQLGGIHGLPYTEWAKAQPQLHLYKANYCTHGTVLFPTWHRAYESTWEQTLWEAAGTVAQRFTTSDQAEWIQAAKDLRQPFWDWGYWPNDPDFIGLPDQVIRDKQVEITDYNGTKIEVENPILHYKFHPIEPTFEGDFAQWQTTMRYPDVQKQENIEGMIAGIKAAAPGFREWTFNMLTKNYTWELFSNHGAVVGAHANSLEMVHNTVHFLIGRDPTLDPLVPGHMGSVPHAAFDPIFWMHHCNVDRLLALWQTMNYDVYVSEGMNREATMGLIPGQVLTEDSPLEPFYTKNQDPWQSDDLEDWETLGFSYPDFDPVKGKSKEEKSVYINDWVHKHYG

Row | Compound | tyrosinase inhibitory activity (in words)
1 | O=C(O)c1ccc(O)c(O)c1 [Compound 7, 3,4-dihydroxybenzoic acid] | potent competitive tyrosinase inhibition
2 | O=C(O)c1ccc(O)cc1 [Compound 6, 4-hydroxybenzoic acid] | weak activity

Now from value to molecule:

Row | tyrosinase inhibitory activity (in words) | Compound
3 | low inhibitory activity | O=C(OCC1OC(Oc2c(CO)occc2=O)C(O)C(O)C1O)c1ccc(O)cc1 (centres unmarked) [Compound 3]
4 | weak activity | OC[C@H]1OC[C@H](O)[C@@H](O)[C@@H]1O [Compound 5, 1,5-anhydro-D-glucitol]
5 | potent competitive tyrosinase inhibition | O=c1c(O)coc(CO)c1O [Compound 8, 3-hydroxykojic acid]

From publication PMC9269349, “Characterization of Four New Compounds from Protea cynaroides Leaves and Their Tyrosinase Inhibitory Potential” (Plants, 2022)
